The source of these data is patent publication EP4603105A1, “PHARMACEUTICAL COMPOSITION CONTAINING CYCLIC COMPOUND HAVING SELECTIVE KRAS INHIBITORY EFFECT AGAINST HRAS AND NRAS” (CHUGAI SEIYAKU KABUSHIKI KAISHA, priority 2022, dated 2024).

Assay [1] addresses HRAS wild-type protein (Homo sapiens, UniProt P01112). Kind of assay: Binding to HRAS by surface plasmon resonance (SPR), KD and KD ratio to KRAS. The gist of the method: (§1)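 GDP-bound biotin-Avi RAS captured at ~100–300 RU, 30°C, pH 7.4 HBS containing 10 µM GDP, 10 mM MgCl2, 1 mM DTT, 0.01% Tween 20 and 4% DMSO. KD by 1:1 fitting.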
In assay [2] the test system is human lung cancer strain NCI-H441. It is filed as cell-based. The gist of the method: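 Readout: […] after the ATP-based reagent. Compound: serial dilutions in dimethyl sulfoxide.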
The target of assay [3] is GDP-bound NRAS wild-type protein (Homo sapiens, UniProt P01111). In words: Binding to NRAS by surface plasmon resonance (SPR), KD and KD ratio to KRAS. The gist of the method: as §1
Sequence of GDP-bound NRAS wild-type protein (P01111 whole entry): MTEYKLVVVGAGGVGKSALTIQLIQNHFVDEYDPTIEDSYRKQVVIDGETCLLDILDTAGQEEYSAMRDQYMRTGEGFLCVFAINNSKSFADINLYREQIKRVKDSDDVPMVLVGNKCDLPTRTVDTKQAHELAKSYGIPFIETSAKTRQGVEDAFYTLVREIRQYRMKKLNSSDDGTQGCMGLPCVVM
For orientation: Surface plasmon resonance follows binding to a sensor surface in real time, without labels.

Setting [4] is: ratio of KD for HRAS wild-type protein to KD for KRAS.
The mark [5] stands for this setting: ratio of KD for GDP-bound NRAS wild-type protein to KD for KRAS.
Setting [6] is: ratio of KD value for HRAS wild-type protein to KD value for KRAS (SPR).
Setting [7] is: ratio of KD value for GDP-bound NRAS wild-type protein to KD value for KRAS (SPR).
Setting [8] is: ratio of the KD value with respect to HRAS wild-type protein to the KD value with respect to KRAS.
Setting [9] is: ratio of the KD value with respect to GDP-bound NRAS wild-type protein to the KD value with respect to KRAS.

Where a SMILES comes first, the peptide text is derived from it. Bridges are numbered along the chain shown (N, C = ends). [ ]: non-standard residue; d: D form. The star is where a group is joined. hPhe(3-Cl-4-CF3) = N[C@@H](CCc1ccc(C(F)(F)F)c(Cl)c1)C(=O)O; NPrPhe(4-CF3) = CCCN[C@@H](Cc1ccc(C(F)(F)F)cc1)C(=O)O; NMeGly(cPent) = CN[C@H](C(=O)O)C1CCCC1; Pro(4,4-F2) = O=C(O)[C@@H]1CC(F)(F)CN1; Hyp = O=C(O)[C@@H]1C[C@@H](O)CN1; NMeD = CN[C@@H](CC(=O)O)C(=O)O; Ac4c(3-oxa) = NC1(C(=O)O)COC1; NMeL = CN[C@@H](CC(C)C)C(=O)O; Morpholide = C1CN(*)CCO1; NMeA = CN[C@@H](C)C(=O)O; Ac5c = NC1(C(=O)O)CCCC1; Aze = O=C(O)[C@@H]1CCN1; NEtG = CCNCC(=O)O; Sar = CNCC(=O)O

Sequence of HRAS wild-type protein (P01112 whole entry): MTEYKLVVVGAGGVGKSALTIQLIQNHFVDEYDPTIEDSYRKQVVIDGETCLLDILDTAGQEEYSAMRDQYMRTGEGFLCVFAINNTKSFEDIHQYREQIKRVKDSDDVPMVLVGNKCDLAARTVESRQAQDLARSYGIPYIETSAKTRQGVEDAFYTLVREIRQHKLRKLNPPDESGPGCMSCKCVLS

The term IC50 denotes the concentration at which inhibition is half-maximal. On to `CCCN1C(=O)[C@@H]2CCN2C(=O)[C@H](C)N(C)C(=O)[C@H]([C@@H](C)CC)NC(=O)[C@H](CC(C)C)N(C)C(=O)C[C@@H](C(=O)N2CCOCC2)N(C)C(=O)[C@H](C2CCCC2)N(C)C(=O)C2(CCCC2)NC(=O)[C@@H]2C[C@@H](OCC)CN2C(=O)[C@H](CCc2ccc(C(F)(F)F)c(Cl)c2)NC(=O)CN(C)C(=O)[C@@H]1Cc1ccc(C(F)(F)F)cc1` [PP0228] ([NMeL]I[NMeA][Aze][NPrPhe(4-CF3)][Sar][hPhe(3-Cl-4-CF3)][Hyp](Et)[Ac5c][NMeGly(cPent)][NMeD]-Morpholide; lactam N-11), for which the “HRAS /KRAS” value in assay [1] (setting [4]) was “B (a compound having 3 or more and less than 10 is denoted as B)”. Further, it took 1.8 nM to reach half-maximal inhibition in assay [2] (IC50). In addition, the “NRAS /KRAS” value in assay [3] (setting [5]) was “C (A compound having a KD ratio of 0.1 or more and less than 3 is denoted as C)”.
Turning to `CC[C@H](C)[C@@H]1NC(=O)[C@H](CC(C)C)N(C)C(=O)C[C@@H](C(=O)N(C)C)N(C)C(=O)[C@H](C2CCCC2)N(C)C(=O)C2(CC(C)(C)C2)NC(=O)[C@@H]2CCCN2C(=O)[C@H](CCc2cc(F)c(C(F)(F)F)c(F)c2)NC(=O)CN(C)C(=O)[C@H](Cc2ccc(C(F)(F)F)cc2)N2CC/C=C\C[C@@H](C2=O)N(C)C(=O)CN(C)C1=O` [PP1727], the “HRAS /KRAS” value in assay [1] (setting [6]) was “A (a compound having 10 or more and less than 20 is denoted as A)”. In addition, 4 nM corresponded to half-maximal inhibition in assay [2] (IC50). In addition, in assay [3] (setting [7]), the “NRAS /KRAS” value was “A (a compound having 10 or more and less than 20 is denoted as A)”.
As to `CCO[C@@H]1C[C@H]2C(=O)NC3(CCC3)C(=O)N(C)[C@@H](C(CC)CC)C(=O)N(C)C(C(C)C)CC(=O)N(C)[C@@H](CC3CC3)C(=O)N[C@@H]([C@@H](C)CC)C(=O)N(C)CC(=O)N(C)[C@H]3C/C=C\CCN(C3=O)[C@@H](Cc3ccc(C(F)(F)F)cc3)C(=O)N(C)CC(=O)N[C@@H](CCc3cc(F)c(C(F)(F)F)c(F)c3)C(=O)N2C1` (stereo partly drawn) [PP1595], in assay [1] (setting [6]), the “HRAS /KRAS” value was “A (a compound having 10 or more and less than 20 is denoted as A)”. In assay [2], this compound had a half-inhibitory concentration (IC50) of 64.6 nM. Besides, the “NRAS /KRAS” value in assay [3] (setting [7]) was “A (a compound having 10 or more and less than 20 is denoted as A)”.
As to `CCC[C@H]1C(=O)N[C@@H]([C@@H](C)CC)C(=O)N(C)CC(=O)N(C)[C@H]2C/C=C\CCN(C2=O)[C@@H](Cc2ccc(C(F)(F)F)cc2)C(=O)N(C)CC(=O)N[C@@H](CCc2cc(F)c(C(F)(F)F)c(F)c2)C(=O)N2CC(F)(F)C[C@H]2C(=O)NC2(CC(C)(C)C2)C(=O)N(C)[C@@H](C2CCCC2)C(=O)N(C)[C@H](C(=O)N(C)C)CC(=O)N1C` [PP1711], in assay [1] (setting [6]), the “HRAS /KRAS” value was “B (a compound having 3 or more and less than 10 is denoted as B)”. This compound also had a 50% inhibitory concentration (IC50) in assay [2] of 5 nM. Moreover, the “NRAS /KRAS” value in assay [3] (setting [7]) is “A (a compound having 10 or more and less than 20 is denoted as A)”.
Consider `CC[C@H](C)[C@@H]1NC(=O)[C@H](CC(C)C)N(C)C(=O)C[C@@H](C(=O)N2CCOCC2)N(C)C(=O)[C@H](C2CCCC2)N(C)C(=O)C2(CCCC2)NC(=O)[C@@H]2CCCN2C(=O)[C@H](CCc2ccc(C(F)(F)F)c(Cl)c2)NC(=O)CN(C)C(=O)[C@H](Cc2ccc(OC(F)(F)F)cc2)N2C/C=C\CC[C@@H](C2=O)N(C)C(=O)CN(C)C1=O` [PP0610], for which the “HRAS /KRAS” value in assay [1] (setting [8]) was “B (a compound having 3 or more and less than 10 is denoted as B)”. Besides, the midpoint of inhibition in assay [2], the IC50, lay at 689 nM. Moreover, the “NRAS /KRAS” value in assay [3] (setting [9]) is “B (a compound having 3 or more and less than 10 is denoted as B)”.
For `CCCN1C(=O)CN(C)C(=O)CN(C)C(=O)[C@H]([C@@H](C)CC)NC(=O)[C@H](CC(C)C)N(C)C(=O)C[C@@H](C(=O)N2CCOCC2)N(C)C(=O)[C@H](C2CCCC2)N(C)C(=O)C2(COC2)NC(=O)[C@@H]2CCCN2C(=O)[C@H](CCc2ccc(C(F)(F)F)c(Cl)c2)NC(=O)CN(C)C(=O)[C@@H]1Cc1ccc(C(F)(F)F)cc1` [PP1922] ([NMeL]I[Sar][Sar][NPrPhe(4-CF3)][Sar][hPhe(3-Cl-4-CF3)]P[Ac4c(3-oxa)][NMeGly(cPent)][NMeD]-Morpholide; lactam N-11), the “HRAS /KRAS” value in assay [1] (setting [8]) was “C (A compound having a KD ratio of 0.1 or more and less than 3 is denoted as C)”. In addition, in assay [2], the half-maximal inhibitory concentration (IC50) worked out at 44.1 nM. In addition, the “NRAS /KRAS” value in assay [3] (setting [9]) is “B (a compound having 3 or more and less than 10 is denoted as B)”.
On to `CC[C@H](C)[C@@H]1NC(=O)[C@H](CC(C)C)N(C)C(=O)C[C@@H](C(=O)N2CCOCC2)N(C)C(=O)[C@H](C2CCCC2)N(C)C(=O)C2(CCCC2)NC(=O)[C@@H]2CCCN2C(=O)[C@H](CCc2cc(F)c(C(F)(F)F)c(F)c2)NC(=O)CN(C)C(=O)[C@H](Cc2ccc(C(F)(F)F)cc2)N2CCCC[C@@H](C2=O)N(C)C(=O)[C@@H]2CCCN2C1=O` [PP0547], for which, in assay [1] (setting [8]), the “HRAS /KRAS” value is “B (a compound having 3 or more and less than 10 is denoted as B)”. For the same compound, the half-inhibitory concentration (IC50) in assay [2] was found to be 21.5 nM. In addition, in assay [3] (setting [9]), the “NRAS /KRAS” value was “B (a compound having 3 or more and less than 10 is denoted as B)”.
`CCO[C@@H]1C[C@H]2C(=O)NC3(CCC3)C(=O)N(C)[C@@H](C3CCCC3)C(=O)N(C)[C@H](C(=O)N3CCOCC3)CC(=O)N(C)[C@@H](CC3CCCC3)C(=O)N[C@@H]([C@@H](C)CC)C(=O)N(C)CC(=O)N(C)[C@H]3CCCCN(C3=O)[C@@H](Cc3ccc(C(F)(F)F)cc3)C(=O)N(C)CC(=O)N[C@@H](CCc3cc(F)c(C(F)(F)F)c(F)c3)C(=O)N2C1` [PP0715]: in assay [1] (setting [8]), the “HRAS /KRAS” value is “B (a compound having 3 or more and less than 10 is denoted as B)”. In addition, in assay [2], the midpoint of inhibition, the IC50, lay at 4.5 nM. Also, the “NRAS /KRAS” value in assay [3] (setting [9]) was “C (A compound having a KD ratio of 0.1 or more and less than 3 is denoted as C)”.
As for `CCO[C@@H]1C[C@H]2C(=O)NC3(CCC3)C(=O)N(C)[C@@H](C3CCCC3)C(=O)N(C)[C@H](C(=O)N(C)C)CC(=O)N(C)[C@@H](CC3CC3)C(=O)N[C@@H]([C@@H](C)CC)C(=O)N(C)CC(=O)N(C)[C@H]3C/C=C\CCN(C3=O)[C@@H](Cc3ccc(C(F)(F)F)cc3)C(=O)N(C)CC(=O)N[C@@H](CCc3cc(F)c(C(F)(F)F)c(F)c3)C(=O)N2C1` [PP1111], in assay [1] (setting [4]), the “HRAS /KRAS” value is “A (a compound having 10 or more and less than 20 is denoted as A)”. In assay [2], this compound gave an IC50 of 13 nM. Besides, in assay [3] (setting [5]), the “NRAS /KRAS” value is “A (a compound having 10 or more and less than 20 is denoted as A)”.
Regarding `CCCN1C(=O)CN(C)C(=O)CN(CC)C(=O)[C@H]([C@@H](C)CC)NC(=O)[C@H](CC(C)C)N(C)C(=O)C[C@@H](C(=O)N2CCOCC2)NC(=O)[C@H](C2CCCC2)N(C)C(=O)C2(CCCC2)NC(=O)[C@@H]2CC(F)(F)CN2C(=O)[C@H](CCc2ccc(C(F)(F)F)c(Cl)c2)NC(=O)CN(C)C(=O)[C@@H]1Cc1ccc(C(F)(F)F)cc1` [PP0333] ([NMeL]I[NEtG][Sar][NPrPhe(4-CF3)][Sar][hPhe(3-Cl-4-CF3)][Pro(4,4-F2)][Ac5c][NMeGly(cPent)]D-Morpholide; lactam N-11), the “HRAS /KRAS” value in assay [1] (setting [4]) is “C (A compound having a KD ratio of 0.1 or more and less than 3 is denoted as C)”. In addition, in assay [2], the IC50 turned out to be 41.6 nM. For the same compound, the “NRAS /KRAS” value in assay [3] (setting [5]) was “B (a compound having 3 or more and less than 10 is denoted as B)”.
As for `CCO[C@@H]1C[C@H]2C(=O)NC3(CC(C)(C)C3)C(=O)N(C)[C@@H](C3CCCC3)C(=O)N(C)[C@H](C(=O)N3CCCCC3)CC(=O)N(C)[C@H]3CCC/C=C/c4ccc(cc4)C[C@@H](C(=O)N(C)CC(=O)N[C@@H](CCc4ccc(Cl)c(Cl)c4)C(=O)N2C1)N1CC/C=C\C[C@@H](C1=O)N(C)C(=O)CN(C)C(=O)[C@H]([C@@H](C)CC)NC3=O` [PP2578], the “HRAS /KRAS” value in assay [1] (setting [4]) is “A (a compound having 10 or more and less than 20 is denoted as A)”. The midpoint of inhibition in assay [2], the IC50, lay at 17.7 nM. Further, the “NRAS /KRAS” value in assay [3] (setting [5]) is “AA (a compound having 20 or more is denoted as AA)”.
